Reference: ChEMBL document CHEMBL1201862, “PubChem BioAssay data set” (2004)
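Step 1: Grow cells in 96-well plates. Step 2: Expose to compound for 48 hours at 5 concentrations. Step 3: Interpolate endpoints linearly; if unreached, use highest concentration. GI50 = concentration required for 50% inhibition of growth.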 Calls of active or inactive are those of the source. Cut-off read from the data, not from the text of the source: active = GI50 up to about 1.1 µM and inactive = higher.

What was measured:
Test in all cases: inhibition of tumour cell growth, NCI panel, 48 h
MCF7 = test system: MCF7
SK-MEL-2 = test system: SK-MEL-2
SF-295 = test system: SF-295
HOP-62 = test system: HOP-62
MDA-MB-435 = test system: MDA-MB-435
786-0 = test system: 786-0
NCI-H522 = test system: NCI-H522
HCT-116 = test system: HCT-116
PC-3 = test system: PC-3
CCRF-CEM = test system: CCRF-CEM
OVCAR-4 = test system: OVCAR-4
RXF 393 = test system: RXF 393
SF-539 = test system: SF-539
LOX IMVI = test system: LOX IMVI
HT-29 = test system: HT-29
Malme-3M = test system: Malme-3M
SK-OV-3 = test system: SK-OV-3
SNB-19 = test system: SNB-19
HOP-92 = test system: HOP-92
HCT-15 = test system: HCT-15

Row | Structure (SMILES) | GI50 (MCF7) | GI50 (SK-MEL-2) | GI50 (SF-295) | GI50 (HOP-62) | GI50 (MDA-MB-435) | GI50 (786-0) | GI50 (NCI-H522) | GI50 (HCT-116) | GI50 (PC-3) | GI50 (CCRF-CEM) | GI50 (OVCAR-4) | GI50 (RXF 393) | GI50 (SF-539) | GI50 (LOX IMVI) | GI50 (HT-29) | GI50 (Malme-3M) | GI50 (SK-OV-3) | GI50 (SNB-19) | GI50 (HOP-92) | GI50 (HCT-15) [µM]
1 | COC1/C=C/C(C)C(C(C)C(OC)C(C)CCC(=O)C(C)C(C/C=C/N(C)C=O)OC)OC(=O)C=CC2OC2(C)CC(OC)C(OC)C2=CC(=O)O[C@@H](C(C)C(OC)CC(OC)/C=C/C(C)C(O)C1)[C@H]2O (stereo not given in full) | 0.00627 µM (active) | 0.0175 µM (active) | 0.00775 µM (active) | 0.00497 µM (active) | 0.0137 µM (active) | 0.00451 µM (active) | 0.00369 µM (active) | 0.000528 µM (active) | 0.00609 µM (active) | 0.00935 µM (active) | 0.0208 µM (active) | 0.0139 µM (active) | 0.0037 µM (active) | 0.002 µM (active) | 0.00364 µM (active) | 0.00673 µM (active) | 0.0205 µM (active) | 0.0121 µM (active) | 0.0056 µM (active) | 0.00631
2 | COc1ccn(CC(=O)c2cc3ccccc3[nH]2)c(=O)n1 | > 100 µM (inactive) | > 100 µM (inactive) | > 100 µM (inactive) | > 100 µM (inactive) | > 100 µM (inactive) | > 100 µM (inactive) | > 100 µM (inactive) | > 100 µM (inactive) | > 100 µM (inactive) | > 100 µM (inactive) | > 100 µM (inactive) | > 100 µM (inactive) | > 100 µM (inactive) | > 100 µM (inactive) | > 100 µM (inactive) | > 100 µM (inactive) | > 100 µM (inactive) | > 100 µM (inactive) | 49.7 µM (inactive) | > 100
3 | CN1CCCC(C(=O)OCC(=O)C2(O)CCC3C4CCC5=CC(=O)CCC5(C)C4C(O)CC32C)C1 (stereo not given) | 12.6 µM (inactive) | 19.5 µM (inactive) | 19.9 µM (inactive) | 14.6 µM (inactive) | 12.6 µM (inactive) | 4.2 µM (inactive) | 17.3 µM (inactive) | 8.97 µM (inactive) | 11.4 µM (inactive) | 4.9 µM (inactive) | 13.4 µM (inactive) | 8.49 µM (inactive) | 2.12 µM (inactive) | 10.9 µM (inactive) | 10.8 µM (inactive) | 17 µM (inactive) | 16.3 µM (inactive) | 8.05 µM (inactive) | 50.9 µM (inactive) | 18.7
4 | O=C(CSCC(=O)N/N=C/c1cccs1)N/N=C/c1cccs1 | > 100 µM (inactive) | 93.1 µM (inactive) | 52.7 µM (inactive) | 46.3 µM (inactive) | > 100 µM (inactive) | 47.6 µM (inactive) | 38.6 µM (inactive) | > 100 µM (inactive) | 30.6 µM (inactive) | 51.6 µM (inactive) | 45.2 µM (inactive) | 74.3 µM (inactive) | 52.8 µM (inactive) | > 100 µM (inactive) | > 100 µM (inactive) | 61 µM (inactive) | > 100 µM (inactive) | 56.1 µM (inactive) | 27.2 µM (inactive) | > 100
5 | O=Cc1ccc(-c2ccc(-c3ccc(CO)s3)o2)s1 | 0.348 µM (active) | 35.7 µM (inactive) | 14.5 µM (inactive) | 17.4 µM (inactive) | 8.32 µM (inactive) | 2.47 µM (inactive) | 15.7 µM (inactive) | 0.841 µM (active) | 28.3 µM (inactive) | 1.58 µM (inactive) | 0.318 µM (active) | 5.74 µM (inactive) | 17.9 µM (inactive) | 9.04 µM (inactive) | 7.83 µM (inactive) | 18.2 µM (inactive) | 19.7 µM (inactive) | 32 µM (inactive) | 17.5 µM (inactive) | 24.4
6 | CCOc1cc2c(NCCCN(CCO)CCO)ncnc2c(OCC)c1OCC | > 100 µM (inactive) | > 87.3 µM (inactive) | > 100 µM (inactive) | > 100 µM (inactive) | > 100 µM (inactive) | > 100 µM (inactive) | > 100 µM (inactive) | > 100 µM (inactive) | > 100 µM (inactive) | > 100 µM (inactive) | > 88.5 µM (inactive) | > 82 µM (inactive) | > 100 µM (inactive) | > 100 µM (inactive) | > 65.6 µM (inactive) | 55.6 µM (inactive) | > 100 µM (inactive) | > 100 µM (inactive) | 34.3 µM (inactive) | > 100
7 | COc1nc2ncc([C@@H](O)[C@H](O)CO)nc2c(=O)[nH]1 | > 100 µM (inactive) | > 100 µM (inactive) | > 100 µM (inactive) | > 100 µM (inactive) | > 100 µM (inactive) | > 100 µM (inactive) | > 100 µM (inactive) | > 100 µM (inactive) | > 100 µM (inactive) | > 100 µM (inactive) | > 100 µM (inactive) | > 100 µM (inactive) | > 100 µM (inactive) | > 100 µM (inactive) | > 100 µM (inactive) | > 100 µM (inactive) | > 100 µM (inactive) | > 100 µM (inactive) | > 100 µM (inactive) | > 100
8 | O=C(NCCNCCNC(=O)c1cc(-c2ccccc2)nc2ccccc12)c1cc(-c2ccccc2)nc2ccccc12 | 1.78 µM (inactive) | 1.82 µM (inactive) | 1.67 µM (inactive) | 1.57 µM (inactive) | 1.82 µM (inactive) | 1.69 µM (inactive) | 1.93 µM (inactive) | 1.7 µM (inactive) | 2.75 µM (inactive) | 3.77 µM (inactive) | 2 µM (inactive) | 1.67 µM (inactive) | 2 µM (inactive) | 1.69 µM (inactive) | 1.81 µM (inactive) | 1.92 µM (inactive) | 7.46 µM (inactive) | 3.21 µM (inactive) | 1.82 µM (inactive) | 2.92
9 | C=CCC1(C)CCCN(Cc2ccccc2)C1=O (stereo not given) | > 10 µM (inactive) | > 10 µM (inactive) | > 10 µM (inactive) | > 10 µM (inactive) | > 10 µM (inactive) | > 10 µM (inactive) | > 10 µM (inactive) | > 10 µM (inactive) | > 10 µM (inactive) | > 10 µM (inactive) | > 10 µM (inactive) | > 10 µM (inactive) | > 10 µM (inactive) | > 10 µM (inactive) | > 10 µM (inactive) | 0.0161 µM (active) | > 10 µM (inactive) | > 10 µM (inactive) | > 10 µM (inactive) | > 10
10 | C=C1C(=O)O[C@@H]2/C=C(C)/C=C\[C@@H]3O[C@@]3(C)C[C@@H](O)C12 (stereo not given in full) | 4.4 µM (inactive) | 30.8 µM (inactive) | 49.7 µM (inactive) | 36.1 µM (inactive) | 18 µM (inactive) | 8.69 µM (inactive) | 4.23 µM (inactive) | 8.13 µM (inactive) | 24.5 µM (inactive) | 1.66 µM (inactive) | 16.3 µM (inactive) | 18.7 µM (inactive) | 7.73 µM (inactive) | 7.1 µM (inactive) | 10 µM (inactive) | 12.7 µM (inactive) | 54 µM (inactive) | 17.5 µM (inactive) | 5.98 µM (inactive) | 6.27
11 | O=C1Nc2c(Cl)cc(Cl)cc2/C1=N/Nc1ccccc1[N+](=O)[O-] | > 100 µM (inactive) | 18.2 µM (inactive) | 11.7 µM (inactive) | 5.47 µM (inactive) | > 100 µM (inactive) | 5.75 µM (inactive) | 35.2 µM (inactive) | 38.2 µM (inactive) | 40.8 µM (inactive) | 46 µM (inactive) | 29 µM (inactive) | 14.2 µM (inactive) | 13 µM (inactive) | 84.5 µM (inactive) | > 100 µM (inactive) | 29.2 µM (inactive) | 30.1 µM (inactive) | 23.7 µM (inactive) | 12 µM (inactive) | 72.1
12 | O=C1N=C(Nc2ccccc2Cl)N/C1=C\c1ccc(Cl)cc1Cl | 31.4 µM (inactive) | 18.9 µM (inactive) | 60.8 µM (inactive) | 62.4 µM (inactive) | 5.96 µM (inactive) | 68.2 µM (inactive) | 11.9 µM (inactive) | 38.4 µM (inactive) | 33.7 µM (inactive) | 29.5 µM (inactive) | 44.3 µM (inactive) | 15.5 µM (inactive) | 37.8 µM (inactive) | > 100 µM (inactive) | > 100 µM (inactive) | 53.6 µM (inactive) | > 100 µM (inactive) | > 100 µM (inactive) | 39.9 µM (inactive) | 39.5
13 | COC(=O)c1cc2c(cc1CC(Cc1ccc3c(c1)CCCC3)C(=O)OC)CCCC2 (stereo not given) | 40.1 µM (inactive) | > 100 µM (inactive) | 76 µM (inactive) | > 100 µM (inactive) | 40.6 µM (inactive) | 45.4 µM (inactive) | 54.5 µM (inactive) | 36 µM (inactive) | 21.7 µM (inactive) | 29.7 µM (inactive) | 29.9 µM (inactive) | 25.8 µM (inactive) | 32.7 µM (inactive) | 28.2 µM (inactive) | 33.7 µM (inactive) | 33.6 µM (inactive) | 49.5 µM (inactive) | > 100 µM (inactive) | 44.9 µM (inactive) | 35.7
14 | COc1ccc2c(c1)CCC(CN1CCN(CCOC(c3ccc(F)cc3)c3ccc(F)cc3)CC1)=C2 | 13.6 µM (inactive) | 15.8 µM (inactive) | 22.2 µM (inactive) | 33.9 µM (inactive) | 16.8 µM (inactive) | 11.9 µM (inactive) | 13.9 µM (inactive) | 7.26 µM (inactive) | 16.8 µM (inactive) | 14.1 µM (inactive) | 24.8 µM (inactive) | 11.2 µM (inactive) | 13 µM (inactive) | 15.6 µM (inactive) | 4.53 µM (inactive) | 14.4 µM (inactive) | > 100 µM (inactive) | 42.5 µM (inactive) | 16.1 µM (inactive) | 3.53
